Laboratory results published in patent US10010513B2, “Aqueous pharmaceutical composition containing a biologic therapeutic agent and guanidine or a guanidine derivative and an injection including the composition” (Novartis AG, priority 2012, dated 2018).

Columns and labels:
[1] = Viscosity of the formulations; format: physicochemical; conditions: Table 5 summary; 150 mM excipient, IgG1/lambda monoclonal antibody
Experimental: Unless otherwise specifically stated, viscosity of any composition discussed herein is determined at a temperature of 20° C. and a shear rate of 1029 s^−1 with a cone spindle of geometry 0.50°/40 mm.

[2] = system: New Zealand White rabbit; assay: Toxicity of Arginine-containing formulation buffer following intravitreal administration; format: in vivo
Experimental: A study was performed to determine the toxicity of an Arginine-containing formulation buffer following intravitreal administration to the New Zealand White rabbit for 4 weeks. Three buffers in 50 μl volumes and varying in concentrations of Arginine were injected intravitreally on a weekly basis for 3 weeks (i.e., three doses) and evaluated for toxicity. The three buffers were as follows: (1) 10 mM Histidine, 170 mM, Trehalose, 0.01% polysorbate 20, pH 5.5; (2) 50 mM Arginine, 10 mM, Histidine, 120 mM Trehalose, 0.01% polysorbate 20, pH 5.5; and (3) 150 mM Arginine, 10 mM Histidine, 0.01% polysorbate).

N=C(N)NCCC[C@H](N)C(=O)O [arginine]
Reduction of the viscosity of the biologic relative to trehalose, urea and taurin [1]: far superior in reducing the viscosity | Damage to photoreceptor cells of the eye ([2]; higher concentrations, about 150 mM): have shown damage to photoreceptor cells | Damage to photoreceptor cells of the eye ([2]; lower concentrations of arginine): do not cause damage to photoreceptor cells

N=C(N)N [guanidine]
Reduction of the viscosity of the biologic relative to trehalose, urea and taurin [1]: far superior in reducing the viscosity
